According to patent US20230041563A1, “N-(1,3,4-OXADIAZOL-2-YL)ARYLCARBOXAMIDES OR SALTS THEREOF, PREPARATION METHODS, HERBICIDAL COMPOSITIONS AND USES THEREOF” (priority 2018, published 2023):

Legend:
Stellaria media = test: Weeding effect in post-emergence stage (greenhouse pot spray); format: in vivo
Summary of the method: (§1)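 Greenhouse pot plants at the 2–3 leaf stage (2 weeks after sowing) were sprayed with compound in acetone with Tween 80 and methyl oleate EC synergist (1.5 L/ha) at 500, 250, 125, 60 or 15 g a.i./ha. Fresh-weight growth control was scored 3 weeks later, averaged over three replicates.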

Amaranthus retroflexus = test: as above; format: in vivo
Summary of the method: as §1

Abutilon theophrasti = test: as above; format: in vivo; details: for Abutilon theophrasti (activity level): Table 3, dose 60 g a.i./ha
Summary of the method: as §1

Echinochloa crusgalli = test: as above; format: in vivo
Summary of the method: as §1

Setaria viridis = test: as above; format: in vivo; details: Table 3, dose 60 g a.i./ha
Summary of the method: as §1

Digitaria sanguinalis = test: as above; format: in vivo; details: for Digitaria sanguinahs (activity level): Table 3, dose 60 g a.i./ha
Summary of the method: as §1

[1] = test system: rice and Echinochloa crusgali; test: Herbicide selection index between rice and Echinochloa crusgali; format: in vivo; details: average dose causing 10% phytotoxicity to rice divided by average dose causing 90% control efficiency to Echinochloa crusgali
[2] = test system: Indica rice (Huanghuazhan); test: Safety test of control experiments on rice; format: in vivo; details: Dose 250 g a.i./ha
From the text: (§2) The activity level criteria for plant damage (i.e., growth control rate) are as follows: Comparative Experiments: [table]

[3] = test system: Japonica rice (Huaidao No. 5); test: Safety test of control experiments on rice; format: in vivo; details: Dose 250 g a.i./ha
From the text: as §2

Rice = test: Transplanted rice safety evaluation and weed control effect evaluation in rice field; format: in vivo, rice (japonica rice/Indica rice); details: Table 7, dose 125 g a.i./ha, 21 days after treatment
Description: (§3) Transplanted rice safety evaluation and weed control effect evaluation in rice field:
In addition, the rice field soil that loaded into the 1/1,000,000 ha pot was leveled to keep water storage at 3-4 cm depth. The 3 leaf stage rice (japonica rice/Indica rice) was transplanted at 3 cm of transplanting depth the next day. The compound of the present invention was treated by the same way after 5 days of transplantation.
(§4) The fertility condition of echinochloa crusgali, scirpus juncoides, Bidens tripartita, Leptochloa chinensis, Sagittaria trifolia and Monochoria vaginalis 14 days after the treatment of the compound of the invention and the fertility condition of rice 21 days after the treatment of the compound of the invention respectively with the naked eye. Evaluate the weed control effect with 0-5 activity standard level. Many compounds show excellent activity and selectivity.

Scirpus juncoides = test: as above; format: in vivo; details: Table 7, dose 125 g a.i./ha, 14 days after treatment
From the text: as §3
(§5) Rice field soil was loaded into a 1/1,000,000 ha pot. The seeds of echinochloa crusgali, scirpus juncoides, Bidens tripartita, Sagittaria trifolia, Monochoria vaginalis and Leptochloa chinensis were sowed and gently covered with soil, then left to stand still in greenhouse in the state of 0.5-1 cm of water storage. The tuber of Sagittaria trifolia was planted in the next day or 2 days later. It was kept at 3-4 cm of water storage thereafter. The weeds were treated by dripping the WP or SC water diluents prepared according to the common preparation method of the compounds of the present invention with pipette homogeneously to achieve specified effective amount when echinochloa crusgali, scirpus juncoides, Bidens tripartita, Monochoria vaginalis and Leptochloa chinensis reached 0.5 leaf stage and Sagittaria trifolia reached the time point of primary leaf stage.
as §4

Monochoria vaginalis = test: as above; format: in vivo; details: Table 7, dose 125 g a.i./ha, 14 days after treatment
From the text: as §3, §5, §4

Echinochloa crusgali = test: as above; format: in vivo; details: Table 7, dose 125 g a.i./ha, 14 days after treatment
From the text: as §3, §5, §4

Compound	Stellaria media (activity level) (Stellaria media; Table 2, dose 250 g a.i./ha)	Amaranthus retroflexus (activity level) (Amaranthus retroflexus; Table 2, dose 250 g a.i./ha)	Abutilion theophrasti (activity level) (Abutilon theophrasti; Table 2, dose 250 g a.i./ha)	Echinochloa crusgah (activity level) (Echinochloa crusgalli; Table 2, dose 250 g a.i./ha)	Digitaria sanguinalis (activity level) (Digitaria sanguinalis; Table 2, dose 250 g a.i./ha)	Selection index between rice and Echinochloa crusgali [1]	Indica rice (Huanghuazhan) (plant damage level) [2]	Japonica rice (Huaidao No. 5) (plant damage level) [3]	Rice (safety level) (Rice)	Scirpus juncoides (activity level) (Scirpus juncoides)	Monochoria vaginalis (activity level) (Monochoria vaginalis)	Echinochloa crusgali (activity level) (Echinochloa crusgali)	Stellaria media (activity level) (Stellaria media; Table 2, dose 500 g a.i./ha)	Amaranthus retroflexus (activity level) (Amaranthus retroflexus; Table 2, dose 500 g a.i./ha)	Abutilion theophrasti (activity level) (Abutilon theophrasti; Table 2, dose 500 g a.i./ha)	Echinochloa crusgah (activity level) (Echinochloa crusgalli; Table 2, dose 500 g a.i./ha)	Digitaria sanguinalis (activity level) (Digitaria sanguinalis; Table 2, dose 500 g a.i./ha)	other results
Cc1nnc(NC(=O)c2ccc(C(F)(F)F)c([S+]([O-])CC(C)C)c2F)o1 (racemic) [Compound 1-20]	5 (Level 5: growth control rate is above 85%)	5 (Level 5: growth control rate is above 85%)	5 (Level 5: growth control rate is above 85%)	5 (Level 5: growth control rate is above 85%)	5 (Level 5: growth control rate is above 85%)	>5	0 (Level 0: growth control rate is less than 5%)	0 (Level 0: growth control rate is less than 5%)	–	–	–	–	–	–	–	–	–	Abutilon theophrasti (activity level) (Abutilon theophrasti): 5 (Level 5: growth control rate is above 85%); Setaria viridis (activity level) (Setaria viridis): 5 (Level 5: growth control rate is above 85%); Digitaria sanguinahs (activity level) (Digitaria sanguinalis): 5 (Level 5: growth control rate is above 85%)
CCS(=O)(=O)c1c(C(F)(F)F)ccc(C(=O)Nc2nnc(C)o2)c1F [Compound 1-6]	5 (Level 5: growth control rate is above 85%)	5 (Level 5: growth control rate is above 85%)	5 (Level 5: growth control rate is above 85%)	5 (Level 5: growth control rate is above 85%)	5 (Level 5: growth control rate is above 85%)	>5	0 (Level 0: growth control rate is less than 5%)	0 (Level 0: growth control rate is less than 5%)	0 (Level 0: growth control rate is less than 5%)	5 (Level 5: growth control rate is above 85%)	5 (Level 5: growth control rate is above 85%)	5 (Level 5: growth control rate is above 85%)	–	–	–	–	–	Stellaria media (activity level) (Stellaria media; Table 2, dose 125 g a.i./ha): 5 (Level 5: growth control rate is above 85%); Amaranthus retroflexus (activity level) (Amaranthus retroflexus; Table 2, dose 125 g a.i./ha): 5 (Level 5: growth control rate is above 85%); Abutilion theophrasti (activity level) (Abutilon theophrasti; Table 2, dose 125 g a.i./ha): 5 (Level 5: growth control rate is above 85%); Echinochloa crusgah (activity level) (Echinochloa crusgalli; Table 2, dose 125 g a.i./ha): 5 (Level 5: growth control rate is above 85%); Digitaria sanguinalis (activity level) (Digitaria sanguinalis; Table 2, dose 125 g a.i./ha): 5 (Level 5: growth control rate is above 85%)
Cc1nnc(NC(=O)c2ccc(C(F)(F)F)c([S+]([O-])C(C)C)c2F)o1 (racemic) [Compound 1-11]	5 (Level 5: growth control rate is above 85%)	5 (Level 5: growth control rate is above 85%)	5 (Level 5: growth control rate is above 85%)	5 (Level 5: growth control rate is above 85%)	5 (Level 5: growth control rate is above 85%)	–	–	–	0 (Level 0: growth control rate is less than 5%)	5 (Level 5: growth control rate is above 85%)	5 (Level 5: growth control rate is above 85%)	5 (Level 5: growth control rate is above 85%)	–	–	–	–	–	–
COCC[S+]([O-])c1c(C(F)(F)F)ccc(C(=O)Nc2nnc(C)o2)c1F (racemic) [Compound 1-57]	–	–	–	–	–	>5	0 (Level 0: growth control rate is less than 5%)	0 (Level 0: growth control rate is less than 5%)	0 (Level 0: growth control rate is less than 5%)	5 (Level 5: growth control rate is above 85%)	5 (Level 5: growth control rate is above 85%)	5 (Level 5: growth control rate is above 85%)	5 (Level 5: growth control rate is above 85%)	5 (Level 5: growth control rate is above 85%)	5 (Level 5: growth control rate is above 85%)	5 (Level 5: growth control rate is above 85%)	5 (Level 5: growth control rate is above 85%)	–
Cc1nnc(NC(=O)c2ccc(C(F)(F)F)c([S+]([O-])CCC(F)(F)F)c2F)o1 (racemic) [Compound 1-52]	–	–	–	–	–	>5	0 (Level 0: growth control rate is less than 5%)	0 (Level 0: growth control rate is less than 5%)	–	–	–	–	5 (Level 5: growth control rate is above 85%)	5 (Level 5: growth control rate is above 85%)	5 (Level 5: growth control rate is above 85%)	5 (Level 5: growth control rate is above 85%)	5 (Level 5: growth control rate is above 85%)	Abutilon theophrasti (activity level) (Abutilon theophrasti): 5 (Level 5: growth control rate is above 85%); Setaria viridis (activity level) (Setaria viridis): 5 (Level 5: growth control rate is above 85%); Digitaria sanguinahs (activity level) (Digitaria sanguinalis): 5 (Level 5: growth control rate is above 85%)
Cc1nnc(NC(=O)c2ccc(C(F)(F)F)c(SC3CC3)c2F)o1 [Compound 1-76]	–	–	–	–	–	–	–	–	0 (Level 0: growth control rate is less than 5%)	5 (Level 5: growth control rate is above 85%)	5 (Level 5: growth control rate is above 85%)	5 (Level 5: growth control rate is above 85%)	–	–	–	–	–	–
CCCCSc1c(C(F)(F)F)ccc(C(=O)Nc2nnc(C)o2)c1F [Compound 1-13]	5 (Level 5: growth control rate is above 85%)	5 (Level 5: growth control rate is above 85%)	5 (Level 5: growth control rate is above 85%)	5 (Level 5: growth control rate is above 85%)	5 (Level 5: growth control rate is above 85%)	>5	0 (Level 0: growth control rate is less than 5%)	0 (Level 0: growth control rate is less than 5%)	–	–	–	–	–	–	–	–	–	–
CCCSc1c(C(F)(F)F)ccc(C(=O)Nc2nnc(C)o2)c1F [Compound 1-7]	5 (Level 5: growth control rate is above 85%)	5 (Level 5: growth control rate is above 85%)	5 (Level 5: growth control rate is above 85%)	5 (Level 5: growth control rate is above 85%)	5 (Level 5: growth control rate is above 85%)	>5	0 (Level 0: growth control rate is less than 5%)	0 (Level 0: growth control rate is less than 5%)	–	–	–	–	5 (Level 5: growth control rate is above 85%)	5 (Level 5: growth control rate is above 85%)	5 (Level 5: growth control rate is above 85%)	5 (Level 5: growth control rate is above 85%)	5 (Level 5: growth control rate is above 85%)	–
